Experimental data taken from ChEMBL document CHEMBL4118281, “Azoalkyl ether imidazo[2,1-b]benzothiazoles as potentially antimicrobial agents with novel structural skeleton” (2018).
≈ marks a conversion by molar mass, not a printed value. Calls of active or inactive are those of the source. The calls are words filed in the database; no cut-off is given here.

Assays:
Staphylococcus aureus [1] = test: Antibacterial activity against methicillin-resistant Staphylococcus aureus N315 after 24 hrs by micro broth dilution method; format: functional; conditions: N315, 24 h
Staphylococcus aureus [2] = test: Antibacterial activity against Staphylococcus aureus ATCC 25923 after 24 hrs by micro broth dilution method; format: functional; conditions: ATCC 25923, 24 h
Bacillus subtilis = test: Antibacterial activity against Bacillus subtilis after 24 hrs by micro broth dilution method; format: functional
Micrococcus luteus = test: Antibacterial activity against Micrococcus luteus ATCC 4698 after 24 hrs by micro broth dilution method; format: functional; conditions: NCTC 2665, 24 h
Escherichia coli [3] = test: Antibacterial activity against Escherichia coli DH52 after 24 hrs by micro broth dilution method; format: functional; conditions: DH52, 24 h
Escherichia coli [4] = test: Antibacterial activity against Escherichia coli JM109 after 24 hrs by micro broth dilution method; format: functional; conditions: JM109, 24 h
Shigella dysenteriae [5] = test: Antibacterial activity against Shigella dysenteriae after 24 hrs by micro broth dilution method; format: functional
Pseudomonas aeruginosa = test: Antibacterial activity against Pseudomonas aeruginosa after 24 hrs by micro broth dilution method; format: functional
Bacillus = test: Antibacterial activity against Bacillus proteus ATCC 13315 after 24 hrs by micro broth dilution method; format: functional; conditions: ATCC 13315, 24 h
Salmonella typhi = test: Antibacterial activity against Bacillus typhi after 24 hrs by micro broth dilution method; format: functional, Salmonella enterica subsp. enterica serovar Typhi; conditions: Salmonella enterica
Candida albicans = test: Antifungal activity against Candida albicans after 24 hrs by two fold serial dilution based spectrophotometric analysis; format: functional
Pichia norvegensis = test: Antifungal activity against Candida mycoderma after 24 hrs by two fold serial dilution based spectrophotometric analysis; format: functional
Cyberlindnera jadinii = test: Antifungal activity against Candida utilis after 24 hrs by two fold serial dilution based spectrophotometric analysis; format: functional; conditions: Williopsis jadinii
Aspergillus flavus [6] = test: Antifungal activity against Aspergillus flavus after 24 hrs by two fold serial dilution based spectrophotometric analysis; format: functional
Saccharomyces cerevisiae = test: Antifungal activity against Beer yeast after 24 hrs by two fold serial dilution based spectrophotometric analysis; format: functional
Aspergillus flavus [7] = test: Potency index, ratio of fluconazole MIC to compound MIC for Aspergillus flavus; format: functional
Shigella dysenteriae [8] = test: Potency index, ratio of norfloxacin MIC to compound MIC for Shigella dysenteriae; format: functional
Shigella dysenteriae [9] = test: Potency index, ratio of chloromycin MIC to compound MIC for Shigella dysenteriae; format: functional
Staphylococcus aureus [10] = test: Antibacterial activity against methicillin-resistant Staphylococcus aureus N315 after 1 passage; format: functional
Staphylococcus aureus [11] = test: Antibacterial activity against methicillin-resistant Staphylococcus aureus N315 after 2 passages; format: functional
Staphylococcus aureus [12] = test: Antibacterial activity against methicillin-resistant Staphylococcus aureus N315 after 3 passages; format: functional
Staphylococcus aureus [13] = test: Antibacterial activity against methicillin-resistant Staphylococcus aureus N315 after 4 passages; format: functional
Staphylococcus aureus [14] = test: Antibacterial activity against methicillin-resistant Staphylococcus aureus N315 after 5 passages; format: functional
Staphylococcus aureus [15] = test: Antibacterial activity against methicillin-resistant Staphylococcus aureus N315 after 6 passages; format: functional
Staphylococcus aureus [16] = test: Antibacterial activity against methicillin-resistant Staphylococcus aureus N315 after 7 passages; format: functional
Staphylococcus aureus [17] = test: Antibacterial activity against methicillin-resistant Staphylococcus aureus N315 after 8 passages; format: functional
Staphylococcus aureus [18] = test: Potency index, ratio of norfloxacin MIC to compound MIC for methicillin-resistant Staphylococcus aureus N315; format: functional
Staphylococcus aureus [19] = test: Potency index, ratio of chloromycin MIC to compound MIC for methicillin-resistant Staphylococcus aureus N315; format: functional
Staphylococcus aureus [20] = test: Bactericidal activity against methicillin-resistant Staphylococcus aureus N315 assessed as reduction in bacterial load at 4 times MIC up to 1 hr by time kill assay; format: functional
Staphylococcus aureus [21] = test: Antibacterial activity against methicillin-resistant Staphylococcus aureus N315 after 16 passages; format: functional, organism-based
Calf thymus DNA [22] = test: Binding affinity to calf thymus DNA assessed as DNA intercalation by UV-Visible spectroscopic method; format: nucleic-acid assay; conditions: Bos taurus
Calf thymus DNA [23] = test: Binding affinity to calf thymus DNA assessed as hypsochromic shift by UV-Visible spectroscopic method; format: nucleic-acid assay; conditions: Bos taurus
Calf thymus DNA [24] = test: Binding affinity to calf thymus DNA assessed as hypochromic shift by UV-Visible spectroscopic method; format: nucleic-acid assay; conditions: Bos taurus
Calf thymus DNA [25] = test: Inhibition of neutral red binding to calf thymus DNA by UV-Visible spectroscopic method; format: nucleic-acid assay; conditions: Bos taurus
Staphylococcus aureus [26] = test: Bactericidal activity against methicillin-resistant Staphylococcus aureus N315 assessed as reduction in bacterial load at 4 times MIC after 120 mins by time kill assay (reference value: 5.77 log10CFU/ml); format: functional
Staphylococcus aureus [27] = test: Bactericidal activity against methicillin-resistant Staphylococcus aureus N315 assessed as reduction in bacterial load at 4 times MIC after 140 mins by time kill assay (reference value: 6.413 log10CFU/ml); format: functional
Staphylococcus aureus [28] = test: Bactericidal activity against methicillin-resistant Staphylococcus aureus N315 assessed as reduction in bacterial load at 4 times MIC after 160 mins by time kill assay (reference value: 7.47 log10CFU/ml); format: functional
Staphylococcus aureus [29] = test: Bactericidal activity against methicillin-resistant Staphylococcus aureus N315 assessed as reduction in bacterial load at 4 times MIC after 180 mins by time kill assay (reference value: 8.63 log10CFU/ml); format: functional
Staphylococcus aureus [30] = test: Bactericidal activity against methicillin-resistant Staphylococcus aureus N315 assessed as reduction in bacterial load at 4 times MIC after 200 mins by time kill assay (reference value: 9.84 log10CFU/ml); format: functional
Staphylococcus aureus [31] = test: Bactericidal activity against methicillin-resistant Staphylococcus aureus N315 assessed as reduction in bacterial load at 4 times MIC after 220 mins by time kill assay (reference value: 10.39 log10CFU/ml); format: functional
Staphylococcus aureus [32] = test: Bactericidal activity against methicillin-resistant Staphylococcus aureus N315 assessed as reduction in bacterial load at 4 times MIC after 240 mins by time kill assay (reference value: 10.42 log10CFU/ml); format: functional
Staphylococcus aureus [33] = test: Bactericidal activity against methicillin-resistant Staphylococcus aureus N315 assessed as reduction in bacterial load at 4 times MIC after 270 mins by time kill assay (reference value: 10.26 log10CFU/ml); format: functional

Compound | MIC (Staphylococcus aureus [1]) | MIC (Staphylococcus aureus [2]) | MIC (Bacillus subtilis) | MIC (Micrococcus luteus) | MIC (Escherichia coli [3]) | MIC (Escherichia coli [4]) | MIC (Shigella dysenteriae [5]) | MIC (Pseudomonas aeruginosa) | MIC (Bacillus) | MIC (Salmonella typhi) | MIC (Candida albicans) | MIC (Pichia norvegensis) | MIC (Cyberlindnera jadinii) | MIC (Aspergillus flavus [6]) | MIC (Saccharomyces cerevisiae) | MIC (Staphylococcus aureus [10]) | MIC (Staphylococcus aureus [11]) | MIC (Staphylococcus aureus [12]) | MIC (Staphylococcus aureus [13]) | MIC (Staphylococcus aureus [14]) | other results
BrCCCOCc1c(-c2ccccc2)nc2sc3ccccc3n12 | 8 µg/mL (≈ 19.9 µM) | 32 µg/mL (≈ 79.7 µM) | 4 µg/mL (≈ 9.97 µM) | 32 µg/mL (≈ 79.7 µM) | 16 µg/mL (≈ 39.9 µM) | 32 µg/mL (≈ 79.7 µM) | 4 µg/mL (≈ 9.97 µM) | 8 µg/mL (≈ 19.9 µM) | 16 µg/mL (≈ 39.9 µM) | 16 µg/mL (≈ 39.9 µM) | 4 µg/mL (≈ 9.97 µM) | 32 µg/mL (≈ 79.7 µM) | 64 µg/mL (≈ 159 µM) | 4 µg/mL (≈ 9.97 µM) | 8 µg/mL (≈ 19.9 µM) | – | – | – | – | – | Ratio (Aspergillus flavus [7]): 64; Ratio (Shigella dysenteriae [8]): 4; Ratio (Shigella dysenteriae [9]): 4
O=C(N[C@H](CO)[C@H](O)c1ccc([N+](=O)[O-])cc1)C(Cl)Cl [CHLORAMPHENICOL] | 16 µg/mL (≈ 49.5 µM) | 16 µg/mL (≈ 49.5 µM) | 32 µg/mL (≈ 99 µM) | 8 µg/mL (≈ 24.8 µM) | 32 µg/mL (≈ 99 µM) | 32 µg/mL (≈ 99 µM) | 16 µg/mL (≈ 49.5 µM) | 32 µg/mL (≈ 99 µM) | 32 µg/mL (≈ 99 µM) | 32 µg/mL (≈ 99 µM) | – | – | – | – | – | 14 µM (≈ 4.52 µg/mL) | 14 µM (≈ 4.52 µg/mL) | 14 µM (≈ 4.52 µg/mL) | 33 µM (≈ 10.7 µg/mL) | 33 µM (≈ 10.7 µg/mL) | MIC (Staphylococcus aureus [15]): 33 µM (≈ 10.7 µg/mL); MIC (Staphylococcus aureus [16]): 67 µM (≈ 21.6 µg/mL); MIC (Staphylococcus aureus [17]): 67 µM (≈ 21.6 µg/mL)
CCOc1ccc2c(c1)sc1nc(-c3ccccc3)c(COCCCn3cnc([N+](=O)[O-])c3)n12 | 512 µg/mL (≈ 1070 µM) | 128 µg/mL (≈ 268 µM) | 256 µg/mL (≈ 536 µM) | 256 µg/mL (≈ 536 µM) | 512 µg/mL (≈ 1070 µM) | 256 µg/mL (≈ 536 µM) | 256 µg/mL (≈ 536 µM) | 512 µg/mL (≈ 1070 µM) | 512 µg/mL (≈ 1070 µM) | 256 µg/mL (≈ 536 µM) | 16 µg/mL (≈ 33.5 µM) | 32 µg/mL (≈ 67 µM) | 128 µg/mL (≈ 268 µM) | 32 µg/mL (≈ 67 µM) | > 512 µg/mL | – | – | – | – | – | –
Cc1ncc([N+](=O)[O-])n1CCCOCc1c(-c2ccccc2)nc2sc3ccccc3n12 | 2 µg/mL (≈ 4.47 µM) | 8 µg/mL (≈ 17.9 µM) | 4 µg/mL (≈ 8.94 µM) | 32 µg/mL (≈ 71.5 µM) | 4 µg/mL (≈ 8.94 µM) | 4 µg/mL (≈ 8.94 µM) | 4 µg/mL (≈ 8.94 µM) | 2 µg/mL (≈ 4.47 µM) | 8 µg/mL (≈ 17.9 µM) | 1 µg/mL (≈ 2.23 µM) | 2 µg/mL (≈ 4.47 µM) | 16 µg/mL (≈ 35.8 µM) | 32 µg/mL (≈ 71.5 µM) | 8 µg/mL (≈ 17.9 µM) | 256 µg/mL (≈ 572 µM) | 13 µM (≈ 5.82 µg/mL) | 13 µM (≈ 5.82 µg/mL) | 14 µM (≈ 6.27 µg/mL) | 16 µM (≈ 7.16 µg/mL) | 15 µM (≈ 6.71 µg/mL) | Ratio (Staphylococcus aureus [18]): 4 - 8; Ratio (Staphylococcus aureus [19]): 4 - 8; Activity (Staphylococcus aureus [20]): >3 log10CFU/ml; Activity (Staphylococcus aureus [21]): Active; Activity (Calf thymus DNA [22]): Active; Activity (Calf thymus DNA [23]): Dose-dependent effect; Activity (Calf thymus DNA [24]): Active; inhibition (Calf thymus DNA [25]): Active; MIC (Staphylococcus aureus [15]): 15 µM (≈ 6.71 µg/mL); MIC (Staphylococcus aureus [16]): 15 µM (≈ 6.71 µg/mL); MIC (Staphylococcus aureus [17]): 15 µM (≈ 6.71 µg/mL); Activity (Staphylococcus aureus [26]): 5.77 log10CFU/ml; Activity (Staphylococcus aureus [27]): 3.29 log10CFU/ml; Activity (Staphylococcus aureus [28]): 1.98 log10CFU/ml; Activity (Staphylococcus aureus [29]): 1.81 log10CFU/ml; Activity (Staphylococcus aureus [30]): 1.74 log10CFU/ml; Activity (Staphylococcus aureus [31]): 1.66 log10CFU/ml; Activity (Staphylococcus aureus [32]): 1.6 log10CFU/ml; Activity (Staphylococcus aureus [33]): 1.81 log10CFU/ml
BrCCCCCCCCCCOCc1c(-c2ccccc2)nc2sc3ccccc3n12 | 64 µg/mL (≈ 128 µM) | 32 µg/mL (≈ 64.1 µM) | 8 µg/mL (≈ 16 µM) | 32 µg/mL (≈ 64.1 µM) | 16 µg/mL (≈ 32 µM) | 128 µg/mL (≈ 256 µM) | 64 µg/mL (≈ 128 µM) | 16 µg/mL (≈ 32 µM) | 16 µg/mL (≈ 32 µM) | 128 µg/mL (≈ 256 µM) | 4 µg/mL (≈ 8.01 µM) | 64 µg/mL (≈ 128 µM) | 64 µg/mL (≈ 128 µM) | 16 µg/mL (≈ 32 µM) | 64 µg/mL (≈ 128 µM) | – | – | – | – | – | –
CCOc1ccc2c(c1)sc1nc(-c3ccccc3)c(COCCCCCCCCCCn3c([N+](=O)[O-])cnc3C)n12 | 128 µg/mL (≈ 217 µM) | 128 µg/mL (≈ 217 µM) | 32 µg/mL (≈ 54.3 µM) | 512 µg/mL (≈ 868 µM) | 256 µg/mL (≈ 434 µM) | 512 µg/mL (≈ 868 µM) | 16 µg/mL (≈ 27.1 µM) | 128 µg/mL (≈ 217 µM) | 256 µg/mL (≈ 434 µM) | 256 µg/mL (≈ 434 µM) | 128 µg/mL (≈ 217 µM) | 256 µg/mL (≈ 434 µM) | 256 µg/mL (≈ 434 µM) | 512 µg/mL (≈ 868 µM) | 64 µg/mL (≈ 109 µM) | – | – | – | – | – | –
